# Reference: ChEMBL document CHEMBL1201862, “PubChem BioAssay data set” (2004)
#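 Test compounds were applied to cells in 96-well plates for 48 hours at 5 doses. GI50 is the concentration that inhibits growth by half.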 Calls of active or inactive are those of the source. Cut-off read from the data, not from the text of the source: active = GI50 up to about 1.1 µM and inactive = higher.
# Columns and labels:
# Experiment in all cases: inhibition of tumour cell growth, NCI panel, 48 h
# [1] = tested on: OVCAR-5
# [2] = tested on: TK-10
# [3] = tested on: NCI-H522
# [4] = tested on: SK-OV-3
# [5] = tested on: SK-MEL-28
# [6] = tested on: HCT-116
# [7] = tested on: SF-295
# [8] = tested on: HCC 2998
# [9] = tested on: HOP-92
# [10] = tested on: 786-0
# [11] = tested on: SW-620
# [12] = tested on: OVCAR-3
# [13] = tested on: CCRF-CEM
# [14] = tested on: DU-145
# [15] = tested on: SNB-75
# [16] = tested on: U-251
# [17] = tested on: UO-31
# [18] = tested on: IGROV-1
# [19] = tested on: RPMI-8226
# [20] = tested on: SF-268
# [21] = tested on: HT-29
# [22] = tested on: HCT-15
# [23] = tested on: HOP-62
# [24] = tested on: NCI-H460
# [25] = tested on: OVCAR-4
# [26] = tested on: SR
# [27] = tested on: A498
# [28] = tested on: NCI/ADR-RES
# [29] = tested on: M14
# [30] = tested on: CAKI-1
# [31] = tested on: T47D
# [32] = tested on: SF-539
# [33] = tested on: ACHN
# [34] = tested on: OVCAR-8
# [35] = tested on: Hs-578T
# [36] = tested on: NCI-H23
# [37] = tested on: LOX IMVI
# [38] = tested on: UACC-257
# [39] = tested on: KM12
# [40] = tested on: UACC-62
# [41] = tested on: NCI-H226
# [42] = tested on: EKVX
# [43] = tested on: MOLT-4
# [44] = tested on: COLO 205
# [45] = tested on: MCF7
# [46] = tested on: MDA-MB-231
# [47] = tested on: A549
# [48] = tested on: SK-MEL-5
# [49] = tested on: RXF 393
# [50] = tested on: MDA-MB-435
# [51] = tested on: SN12C
# [52] = tested on: SNB-19
# [53] = tested on: K562
# [54] = tested on: PC-3
# [55] = tested on: HL-60
# [56] = tested on: Malme-3M
# [57] = tested on: MDA-N
# [58] = tested on: SK-MEL-2
compound,measurement,setting,value
COc1ccc(-n2c(-c3ccccc3)cc(-c3cccs3)c2-c2cccs2)cc1,GI50,[1],> 100 µM (inactive)
same,GI50,[2],> 100 µM (inactive)
same,GI50,[3],> 100 µM (inactive)
same,GI50,[4],> 100 µM (inactive)
same,GI50,[5],> 100 µM (inactive)
same,GI50,[6],> 100 µM (inactive)
same,GI50,[7],> 100 µM (inactive)
same,GI50,[8],> 100 µM (inactive)
same,GI50,[9],> 100 µM (inactive)
same,GI50,[10],> 100 µM (inactive)
same,GI50,[11],> 100 µM (inactive)
same,GI50,[12],> 100 µM (inactive)
same,GI50,[13],0.0818 µM (active)
same,GI50,[14],> 100 µM (inactive)
same,GI50,[15],88.9 µM (inactive)
same,GI50,[16],> 100 µM (inactive)
same,GI50,[17],> 100 µM (inactive)
same,GI50,[18],> 100 µM (inactive)
same,GI50,[19],> 100 µM (inactive)
same,GI50,[20],> 100 µM (inactive)
same,GI50,[21],> 100 µM (inactive)
same,GI50,[22],> 100 µM
same,GI50,[23],> 100 µM (inactive)
same,GI50,[24],> 100 µM (inactive)
same,GI50,[25],56.6 µM (inactive)
same,GI50,[26],> 100 µM (inactive)
same,GI50,[27],> 100 µM (inactive)
same,GI50,[28],> 100 µM (inactive)
same,GI50,[29],> 100 µM (inactive)
same,GI50,[30],> 100 µM (inactive)
same,GI50,[31],26.5 µM (inactive)
same,GI50,[32],39.1 µM (inactive)
same,GI50,[33],> 100 µM (inactive)
same,GI50,[34],> 100 µM (inactive)
same,GI50,[35],> 100 µM (inactive)
same,GI50,[36],6.73 µM (inactive)
same,GI50,[37],> 100 µM (inactive)
same,GI50,[38],> 100 µM (inactive)
same,GI50,[39],> 100 µM (inactive)
same,GI50,[40],> 100 µM (inactive)
same,GI50,[41],> 100 µM (inactive)
same,GI50,[42],> 100 µM (inactive)
same,GI50,[43],> 100 µM (inactive)
same,GI50,[44],> 100 µM (inactive)
same,GI50,[45],> 100 µM (inactive)
same,GI50,[46],10.1 µM (inactive)
same,GI50,[47],39.4 µM (inactive)
same,GI50,[48],> 100 µM (inactive)
same,GI50,[49],76.9 µM (inactive)
same,GI50,[50],> 100 µM (inactive)
same,GI50,[51],> 100 µM (inactive)
O=C1C(=O)N(C23CC4CC(CC(C4)C2)C3)C(=S)N1c1ccccc1,GI50,[1],> 100 µM (inactive)
same,GI50,[2],58.9 µM (inactive)
same,GI50,[3],17.1 µM (inactive)
same,GI50,[4],> 100 µM (inactive)
same,GI50,[52],> 100 µM (inactive)
same,GI50,[5],> 100 µM (inactive)
same,GI50,[6],93.5 µM (inactive)
same,GI50,[7],97.5 µM (inactive)
same,GI50,[8],> 100 µM (inactive)
same,GI50,[9],30 µM (inactive)
same,GI50,[10],> 100 µM (inactive)
same,GI50,[11],> 100 µM (inactive)
same,GI50,[13],29 µM (inactive)
same,GI50,[14],> 100 µM (inactive)
same,GI50,[53],> 100 µM (inactive)
same,GI50,[15],> 100 µM (inactive)
same,GI50,[16],> 100 µM (inactive)
same,GI50,[17],> 100 µM (inactive)
same,GI50,[18],> 100 µM (inactive)
same,GI50,[19],> 100 µM (inactive)
same,GI50,[20],> 100 µM (inactive)
same,GI50,[21],> 100 µM (inactive)
same,GI50,[22],> 100 µM
same,GI50,[23],> 100 µM (inactive)
same,GI50,[24],97.9 µM (inactive)
same,GI50,[25],> 100 µM (inactive)
same,GI50,[54],> 100 µM (inactive)
same,GI50,[26],> 100 µM (inactive)
same,GI50,[55],42.8 µM (inactive)
same,GI50,[27],> 100 µM (inactive)
same,GI50,[28],66.2 µM (inactive)
same,GI50,[30],> 100 µM (inactive)
same,GI50,[31],> 100 µM (inactive)
same,GI50,[32],> 100 µM (inactive)
same,GI50,[56],> 100 µM (inactive)
same,GI50,[33],> 100 µM (inactive)
same,GI50,[34],97.9 µM (inactive)
same,GI50,[35],> 100 µM (inactive)
same,GI50,[57],> 100 µM (inactive)
same,GI50,[36],49.1 µM (inactive)
same,GI50,[37],> 100 µM (inactive)
same,GI50,[38],32.7 µM (inactive)
same,GI50,[39],> 100 µM (inactive)
same,GI50,[58],70.8 µM (inactive)
same,GI50,[40],> 100 µM (inactive)
same,GI50,[41],60 µM (inactive)
same,GI50,[42],43.5 µM (inactive)
same,GI50,[43],> 100 µM (inactive)
same,GI50,[44],> 100 µM (inactive)
same,GI50,[46],> 100 µM (inactive)
same,GI50,[47],65.5 µM (inactive)
same,GI50,[48],61.2 µM (inactive)
same,GI50,[49],> 100 µM (inactive)
same,GI50,[50],> 100 µM (inactive)
same,GI50,[51],> 100 µM (inactive)
